Columns and labels:
[1] = Selectivity ratio of relative binding affinity for ERbeta receptor LBD to relative binding affinity for ERalpha receptor LBD
[2] = target: T1, Estrogen receptor (Homo sapiens) (UniProt P03372); experiment: Relative binding affinity to ERalpha LBD by competitive binding assay
T1 sequence (whole entry): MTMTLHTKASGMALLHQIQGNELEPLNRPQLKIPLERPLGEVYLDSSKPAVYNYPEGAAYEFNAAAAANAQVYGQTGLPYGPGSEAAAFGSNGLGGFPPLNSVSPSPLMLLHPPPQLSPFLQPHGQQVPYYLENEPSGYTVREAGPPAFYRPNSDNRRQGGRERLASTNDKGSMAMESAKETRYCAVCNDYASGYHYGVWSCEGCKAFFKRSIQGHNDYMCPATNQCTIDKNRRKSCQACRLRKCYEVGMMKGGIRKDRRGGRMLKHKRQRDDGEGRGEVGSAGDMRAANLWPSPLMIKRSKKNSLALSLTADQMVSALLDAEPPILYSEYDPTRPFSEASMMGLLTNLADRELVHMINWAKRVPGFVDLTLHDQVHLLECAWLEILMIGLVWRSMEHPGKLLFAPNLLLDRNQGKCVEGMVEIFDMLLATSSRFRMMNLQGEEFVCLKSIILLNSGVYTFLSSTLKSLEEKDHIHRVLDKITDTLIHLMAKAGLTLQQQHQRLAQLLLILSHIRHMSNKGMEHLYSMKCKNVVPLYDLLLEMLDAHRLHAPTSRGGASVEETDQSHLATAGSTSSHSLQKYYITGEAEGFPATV

[3] = target: Estrogen receptor beta (Homo sapiens) (UniProt Q92731); experiment: Relative binding affinity to ERbeta LBD by competitive binding assay
Chain of Estrogen receptor beta (Homo sapiens) (Q92731 whole entry, the tested form may be a part): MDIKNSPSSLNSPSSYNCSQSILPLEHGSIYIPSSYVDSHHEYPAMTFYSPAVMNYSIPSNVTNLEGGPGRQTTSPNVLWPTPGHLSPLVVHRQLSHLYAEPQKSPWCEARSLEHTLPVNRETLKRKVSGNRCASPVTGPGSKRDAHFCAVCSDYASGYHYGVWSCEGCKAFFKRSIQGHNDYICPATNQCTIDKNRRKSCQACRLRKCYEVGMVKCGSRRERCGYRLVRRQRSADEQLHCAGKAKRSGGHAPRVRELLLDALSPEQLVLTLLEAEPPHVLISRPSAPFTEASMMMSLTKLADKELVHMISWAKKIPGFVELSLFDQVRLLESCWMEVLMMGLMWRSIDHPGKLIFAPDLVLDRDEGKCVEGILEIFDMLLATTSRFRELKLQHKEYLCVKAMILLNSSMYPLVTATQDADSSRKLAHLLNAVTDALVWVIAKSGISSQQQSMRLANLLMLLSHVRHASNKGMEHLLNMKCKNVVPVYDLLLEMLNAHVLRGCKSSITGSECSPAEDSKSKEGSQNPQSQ

Selectivity ratio [1] | RBA [2] [%] | RBA [3] [%] | SMILES
0.43 | 4.5 | 1.9 | CC1(C)CC(NCc2cn(CCOc3ccc([C@H]4C[C@]5(C)[C@@H](O)CC[C@H]5[C@@H]5CCc6cc(O)ccc6[C@H]54)cc3)nn2)CC(C)(C)N1[O]
0.86 |  | 33.7 | C[C@]12C[C@H](c3ccc(OCCN=[N+]=[N-])cc3)[C@@H]3c4ccc(O)cc4CC[C@H]3[C@@H]1CC[C@@H]2O

Reference: ChEMBL document CHEMBL1949624, “Synthesis of a spin-labeled anti-estrogen as a dynamic motion probe for the estrogen receptor ligand binding domain” (Bioorg Med Chem Lett, 2012)
